For three compounds, Viability/εij results are on record in patent publication US20230039766A1, “COMBINATION THERAPY” (TURBINE SIMULATED CELL TECHNOLOGIES LTD, priority 2019, published 2023).

In one data set the test system is NCIH1975 cell line. The data set is described as follows: CellTiter-Glo cell viability assay with Bliss synergy, NCIH1975 cells. The class given is cell-based. (In general: In ATP-based viability assays light output follows the ATP content of the culture.)
The next data set relates to BT474 cell line. Briefly: CellTiter-Glo cell viability assay with Bliss synergy, BT474 cells. The data set is classed as cell-based.

For the compound `Cn1ncnc1[C@H]1c2n[nH]c(=O)c3cc(F)cc(c23)N[C@@H]1c1ccc(F)cc1` [Talazoparib], the Viability/εij in the data set on NCIH1975 cell line (Talazoparib 0.25 μM monotherapy) is 0.597. `O=c1[nH]c(=S)[nH]c(N=Cc2ccccc2)c1N=Cc1ccccc1` [SCR7]: the Viability/εij in the data set on BT474 cell line (SCR7 60 μM monotherapy) came out at 0.653.

Turning to `O=C(c1cc(Cc2n[nH]c(=O)c3ccccc23)ccc1F)N1CCN(C(=O)C2CC2)CC1` [Olaparib], the Viability/εij is recorded as 0.825 in the data set with BT474 cell line (Olaparib 6.67 μM monotherapy) and 0.678 in the data set with NCIH1975 cell line (Olaparib 6.67 μM monotherapy).
